Measured values reported in article PMC8615111, “Phenolic Thiazoles with Antioxidant and Antiradical Activity. Synthesis, In Vitro Evaluation, Toxicity, Electrochemical Behavior, Quantum Studies and Antimicrobial Screening” (Antioxidants, 2021).
Read-outs that look alike come from different tables or passages of the source.

Experiments:
[1] = tested on: HaCaT cells; assay: Cytotoxicity determination, MTT method; format: cell-based; conditions: Homo sapiens, HaCaT cells, MTT, 24 h
Method: To determine the cytotoxic action of the obtained compounds 5[…], and 8a-b, a normal human keratinocytes cell line was used (HaCaT keratinocytes, CLS-300493, Eppelheim, Germany). HaCaT cells were cultured in Dulbecco's Modified Eagle Media (DMEM) supplemented with 1% L-glutamine, 1% penicillin-streptomycin, and 5% fetal bovine serum. At 80% confluence, the cells were transferred to 96 well plates at a confluence of 12×10^3 cells/well and left to attach for 24 h at 37°C and 5% CO2 in a humidified atmosphere. […] After 24 h, the culture media was replaced with 100 μL of MTT solution at a final concentration of 5 μg/mL/well and left to interact with the cells for 2 h in the incubator. After this, the MTT solution was replaced with 100 μL of isopropanol, left to dissolve the formazan crystals for 5 min, and read at 550 and 630 nm using a BioTek Epoch plate reader (BioTek Instruments, Winooski, VT, USA) and Gen5 software (version 1.09).

[2] = DPPH˙ radical scavenging assay; format: biochemical; conditions: for IC50: DPPH˙ scavenging
Method: The 2,2-diphenyl-1-picrylhydrazyl (DPPH˙) radical scavenging assay is based on the transfer of one hydrogen from the analyzed compound to the violet radical DPPH˙. This will convert it to a yellow compound, the change in absorbance being proportional to the amount of DPPH˙ neutralized, according to Brand-Williams et al..
The preparation of the DPPH˙ reagent was previously reported by our group. […] Over the previous quantities, DMSO was added until a total volume of 50 µL was obtained in all cuvettes, and 1950 µL of DPPH˙ solution was added to all cuvettes; then, they were shaken for well over 10 min in the dark at room temperature. The absorbances of the solutions were measured at λ = 517 nm. The DPPH˙ radical scavenging activity of evaluated compounds was calculated using Equation (2):(2) DPPH scavenging (%)=control absorbance−sample absorbance/control absorbance×100

[3] = Cu^2+ chelation assay; format: biochemical
[4] = Ferric ions (Fe^3+) reducing antioxidant power by cyclic voltammetry
Method: The evaluated compounds’ stock solutions used were prepared at a concentration of 5 mM. To test their redox properties, dilutions of 0.5 mM and 2 mM were prepared in 0.1 M HClO4 electrolyte (pH = 1.2). Screen-printed electrodes (SPEs; Metrohm DropSens, Oviedo, Spain) (planar electrodes) with graphite and gold working electrodes were used. Cyclic voltammetry (CV) and differential pulse voltammetry (DPV) were the electrochemical methods applied. The experimental conditions for each test are mentioned near the corresponding data (Appendix A).
(§1) The antioxidant properties were evaluated in terms of their activity against some free radicals, and other compounds reported in the literature, relevant for this purpose, such as: • ferric ions (Fe^3+)—used to test the reduction of the antioxidant character of the compounds; • DPPH˙ free radical– used to test the scavenging effect of the compounds on this radical; • hydrogen peroxide (H2O2)—used to test the scavenging effect of the synthesized molecules on this compound; • 2,2,6,6-tetramethylpiperidinyl-1-oxy (TEMPO)—used to test the scavenging effect of the synthesized molecules on this compound.
This method is based on the evaluation of the influence of the compound measured by the direct reduction of Fe[(CN)6]^3− to […]. This assay is based on the reduction of Fe^3+ to Fe^2+ due to the action of antioxidants. Based on the electrochemical behavior of the studied compounds, the interaction of Fe^3+ was followed by cyclic voltammetry (CV) via the possible changes of redox peaks characteristic for Fe^3+/Fe^2+ transition after the interaction with antioxidants (if any).
From the voltammogram of potassium ferricyanide it can be observed that the one-electron transfer process Fe^3+/Fe^2+ occurs at 0.247 V/ 0.150 V in acidic media (red) (Figure A1; Table A1).
Each compound presents its characteristic peaks (blue line in each figure).

[5] = TEMPO scavenging by differential pulse voltammetry; conditions: 2 mM TEMPO, one hour incubation, 0.1 M HClO4, DPV
Method: as §1
TEMPO (2,2,6,6-tetramethylpiperidine-N-oxyl) is a stable organic nitroxide radical that has been reported to scavenge carbon-centered radicals.
Differential pulse voltammetry (DPV) was then applied in order to evaluate the antioxidant effectiveness of the novel compounds through their ability to scavenge the free radical species.

[6] = Fe^2+ chelation assay; format: biochemical
Method: The protocol used for assessing Fe^2+ chelating capacity of the compounds was adapted from a report of Benzie and Strain and previously reported by our group. The iron(II) chelation ability of compounds was calculated using Equation (7):(7) iron chelation (%)=control absorbance−sample absorbance/control absorbance×100
The chelating potential for the ferrous ions of the new compounds was determined, based on their competition for Fe^2+ with ferrozine.

[7] = compound 0.5 mM + Fe^3+/Fe^2+ (0.5 mM potassium ferricyanide), 1st Eox column
[8] = compound 0.5 mM + Fe^3+/Fe^2+ (0.5 mM potassium ferricyanide), 1st Iox column
[9] = compound + Fe^3+/Fe^2+, 1st Ered
[10] = compound + Fe^3+/Fe^2+, 1st Ired
[11] = compound + Fe^3+/Fe^2+, 2nd Eox
[12] = compound + Fe^3+/Fe^2+, 2nd Iox column
[13] = compound + Fe^3+/Fe^2+, 4th Eox column
[14] = compound + Fe^3+/Fe^2+, 4th Iox column
[15] = compound + Fe^3+/Fe^2+, 5th Eox
[16] = compound + Fe^3+/Fe^2+, 5th Iox column
[17] = compound alone 0.5 mM in 0.1 M HClO4, 2nd Eox
[18] = compound alone 0.5 mM in 0.1 M HClO4, 2nd Ered column
[19] = compound alone 0.5 mM in 0.1 M HClO4, 2nd Iox column
[20] = compound alone 0.5 mM in 0.1 M HClO4, 2nd Ired
[21] = compound alone 0.5 mM in 0.1 M HClO4, 3rd Eox column
[22] = compound alone 0.5 mM in 0.1 M HClO4, 3rd Iox column
[23] = compound alone 0.5 mM in 0.1 M HClO4, 4th Eox column
[24] = compound alone 0.5 mM in 0.1 M HClO4, 4th Iox column
[25] = compound alone 0.5 mM in 0.1 M HClO4, 5th Eox
[26] = compound alone 0.5 mM in 0.1 M HClO4, 5th Iox column
[27] = compound + Fe^3+/Fe^2+, 2nd Ered column
[28] = compound + Fe^3+/Fe^2+, 2nd Ired

| Structure (SMILES) | IC50 ([1]; read-out: IC50) [µM] | IC50 ([1]; read-out: IC50 (µg/mL)) [µg/mL] | Chelation Capacity (%), cupric ions ([3]; 3.36 µg/mL) [%] | Chelation Capacity (%), cupric ions ([3]; 6.72 µg/mL) [%] | Chelation Capacity (%), cupric ions ([3]; 10.08 µg/mL) [%] | Chelation Capacity (%), cupric ions ([3]; 13.44 µg/mL) [%] | Chelation Capacity (%), cupric ions ([3]; 16.80 µg/mL) [%] | Eox (V) [4, 7] [V] | Iox (μA) [4, 8] [μA] | Ered (V) [4, 9] [V] | Ired (μA) [4, 10] [μA] | Eox (V) [4, 11] [V] | Iox (μA) [4, 12] [μA] | Eox (V) [4, 15] [V] | Iox (μA) [4, 16] [μA] | Eox (V) [4, 17] [V] | Ered (V) [4, 18] [V] | Iox (μA) [4, 19] [μA] | Ired (μA) [4, 20] [μA] | Eox (V) [4, 21] [V] | also measured |
| --- | --- | --- | --- | --- | --- | --- | --- | --- | --- | --- | --- | --- | --- | --- | --- | --- | --- | --- | --- | --- | --- |
| C/C(=N\Nc1nc(-c2ccc(O)c(O)c2)cs1)c1ccc(O)cc1O.Cl [Compound 8a, (E)-2-(1-(2,4-dihydroxyphenyl)ethylidene)-1-(4-(3,4-dihydroxyphenyl)thiazol-2-yl)hydrazin-1-ium chloride] | 113 | 44.6 | 11.13 | 17.02 | 25.14 | 34.16 | 38.91 | 0.072 | 0.17 | 0.054 | −8.37 | 0.186 | 17.73 | 0.87 | 18.64 | 0.195 | 0.296 | 2.32 | −5.09 | 0.330 | % of DPPH˙ Scavenged ([2]; 1 µg/mL): 25.05%; % of DPPH˙ Scavenged ([2]; 1.5 µg/mL): 31.43%; % of DPPH˙ Scavenged ([2]; 2 µg/mL): 36.02%; % of DPPH˙ Scavenged ([2]; 3 µg/mL): 47.13%; % of DPPH˙ Scavenged ([2]; 5 µg/mL): 68.90%; IC50 [2]: 3.26 µg/mL; scavenging effect on ferric ion ([4]; 0.5 mM ferricyanide + 0.5 mM compound): highest scavenging effect; Eox (V) [4, 13]: 0.452 V; Iox (μA) [4, 14]: 12.93 μA; Iox (μA) [4, 22]: 7.42 μA; Eox (V) [4, 23]: 0.460 V; Iox (μA) [4, 24]: 7.70 μA; Eox (V) [4, 25]: 0.985 V; Iox (μA) [4, 26]: 3.45 μA; oxidation signal for TEMPO after incubation with the compound [5]: both the signal shift to higher oxidation potentials and its decrease; Chelation Capacity (%), ferrous ions ([6]; 50 µg/mL): 7.73%; Chelation Capacity (%), ferrous ions ([6]; 100 µg/mL): 12.28%; Chelation Capacity (%), ferrous ions ([6]; 150 µg/mL): 17.60%; Chelation Capacity (%), ferrous ions ([6]; 200 µg/mL): 22.64% |
| C/C(=N\Nc1nc(C)cs1)c1ccc(O)cc1O [Compound 5a, Dihydroxy-Phenyl-Thiazol-Hydrazinium chloride] | 102 | 30.7 | 10.74 | 14.51 | 20.10 | 28.62 | 33.67 | 0.152 | 3.69 | 0.091 | −7.33 | 0.308 | 16.21 | 0.903 | 3.82 | 0.308 | 0.318 | 8.83 | −1.23 | 0.573 | Ered (V) [4, 27]: 0.323 V; Ired (μA) [4, 28]: −0.99 μA; Iox (μA) ([4]; compound + Fe^3+/Fe^2+, 3rd Iox column): 4.14 μA; Iox (μA) [4, 22]: 5.23 μA; Eox (V) [4, 25]: 0.997 V; Iox (μA) [4, 26]: 9.78 μA; oxidation signal for TEMPO after incubation with the compound [5]: both the signal shift to higher oxidation potentials and its decrease; Chelation Capacity (%), ferrous ions ([6]; 150 µg/mL): 11.17%; Chelation Capacity (%), ferrous ions ([6]; 200 µg/mL): 21.69% |
| Cl.Oc1ccc(/C=N/Nc2nc(-c3ccc(O)c(O)c3)cs2)c(O)c1 [Compound 8b, (E)-2-(2,4-dihydroxybenzylidene)-1-(4-(3,4-dihydroxyphenyl)thiazol-2-yl)hydrazin-1-ium chloride] | 22.5 | 8.54 | 7.34 | 11.97 | 16.62 | 20.30 | 26.71 | 0.083 | 0.34 | 0.079 | −8.01 | 0.227 | 28.09 | 0.79 | 15.19 | 0.249 | 0.303 | 1.02 | −1.97 | 0.349 | % of DPPH˙ Scavenged ([2]; 1 µg/mL): 39.38%; % of DPPH˙ Scavenged ([2]; 1.5 µg/mL): 47.41%; % of DPPH˙ Scavenged ([2]; 2 µg/mL): 54.37%; % of DPPH˙ Scavenged ([2]; 3 µg/mL): 67.84%; % of DPPH˙ Scavenged ([2]; 5 µg/mL): 91.38%; IC50 [2]: 1.72 µg/mL; Ered (V) [4, 27]: 0.279 V; Ired (μA) [4, 28]: −2.81 μA; Eox (V) [4, 13]: 0.449 V; Iox (μA) [4, 14]: 28.48 μA; Iox (μA) [4, 22]: 1.76 μA; Eox (V) [4, 23]: 0.450 V; Iox (μA) [4, 24]: 2.29 μA; Eox (V) [4, 25]: 0.989 V; Iox (μA) [4, 26]: 1.17 μA; oxidation signal for TEMPO after incubation with the compound [5]: both the signal shift to higher oxidation potentials and its decrease; Chelation Capacity (%), ferrous ions ([6]; 50 µg/mL): 10.74%; Chelation Capacity (%), ferrous ions ([6]; 100 µg/mL): 18.15%; Chelation Capacity (%), ferrous ions ([6]; 150 µg/mL): 25.06%; Chelation Capacity (%), ferrous ions ([6]; 200 µg/mL): 33.38% |
